Legend:
Format in all cases: cell-based
[1] = tested on: recombinant NL4-3 virus (nef section replaced with Renilla luciferase gene) in MT-2 cells; experiment: HIV cell culture assay (antiviral activity, luciferase readout); details: serial dilutions of compound
How it was run: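 Test compound in serial dilution was present while MT-2 cells were infected for 4–5 days with recombinant NL4-3 virus made in 293T cells. Antiviral activity was quantified as Renilla luciferase activity, read with a live-cell substrate. EC50 came from the median-effect equation.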

uninfected MT2 cells = experiment: Compound cytotoxicity, XTT-based colorimetric assay; details: day 4, XTT
How it was run: (§1)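 Run under the antiviral-assay protocol but without virus. Viability was read on day 4 and CC50 values were derived from the readout.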

[2] = as above; details: human, uninfected MT2 cells, day 4, XTT
How it was run: as §1

[3] = MT-2 cells infected for 4-5 days with recombinant NL4-3 Renilla luciferase virus
[4] = Renilla, NL43, MT-2 cells infected for 4-5 days with recombinant NL4-3 Renilla luciferase virus

Structure (SMILES)	EC50 [1, 3]	CC50 (uninfected MT2 cells)	EC50 [1, 4]	CC50 at 4 day [2]
O=C(Cn1nc(C(F)F)c2c1C(F)(F)[C@@H]1C[C@H]21)N[C@@H](Cc1cc(F)cc(F)c1)c1nc2cc(-c3ccccc3F)ccc2c(=O)n1-c1ccc(Cl)c2c(NS(=O)(=O)C3CC3)nn(CC(F)F)c12 (atropisomer, axis not shown; (aR)) [Example 8, N-((S)-1-(3-(4-chloro-3-(cyclopropanesulfonamido)-1-(2,2-difluoroethyl)-1H-indazol-7-yl)-7-(2-fluorophenyl)-4-oxo-3,4-dihydroquinazolin-2-yl)-2-(3,5-difluorophenyl)ethyl)-2-((3bS,4aR)-3-(difluoromethyl)-5,5-difluoro-3b,4,4a,5-tetrahydro-1H-cyclopropa[3,4]cyclopenta[1,2-c]pyrazol-1-yl)acetamide]	0.613 nM	> 1000 nM	–	–
O=C(Cn1nc(C(F)F)c2c1C(F)(F)[C@@H]1C[C@H]21)N[C@@H](Cc1cc(F)cc(F)c1)c1nc2cc(-c3ccccc3F)ccc2c(=O)n1-c1ccc(Cl)c2c(NS(=O)(=O)C3CC3)nn(CC(F)F)c12 (atropisomer, axis not shown; (aR)) [Example 115, N-((S)-1-(3-(4-chloro-3-(cyclopropanesulfonamido)-1-(2,2-difluoroethyl)-1H-indazol-7-yl)-7-(2-fluorophenyl)-4-oxo-3,4-dihydroquinazolin-2-yl)-2-(3,5-difluorophenyl)ethyl)-2-((3bS,4aR)-3-(difluoromethyl)-5,5-difluoro-3b,4,4a,5-tetrahydro-1H-cyclopropa[3,4]cyclopenta[1,2-c]pyrazol-1-yl)acetamide]	–	> 10000 nM	0.469 nM	–
Cn1nc(NS(C)(=O)=O)c2c(Cl)ccc(-n3c([C@H](Cc4cc(F)cc(F)c4)NC(=O)Cn4ccc(C5CC5)n4)nc4cc(-c5ccccc5F)ccc4c3=O)c21 (single isomer, unassigned) [Example 4]	1.1 nM	> 1000 nM	–	–
Cn1nc(NS(C)(=O)=O)c2c(Cl)ccc(-n3c([C@H](Cc4cc(F)cc(F)c4)NC(=O)Cn4nc(C(F)F)c5c4C(F)(F)[C@@H]4C[C@H]54)nc4cc(-c5ccccc5F)ccc4c3=O)c21 (single isomer, unassigned) [Example 5]	–	> 1000 nM	62.7 nM	–
Cn1nc(NS(C)(=O)=O)c2c(Cl)ccc(-n3c([C@H](Cc4cc(F)cc(F)c4)NC(=O)Cn4nc(C(F)F)c5c4C(F)(F)[C@@H]4C[C@H]54)nc4cc(-c5ccccc5F)ccc4c3=O)c21 (single isomer, unassigned) [Example 6]	0.3 nM	> 1000 nM	–	–
CC(C(=O)N[C@@H](Cc1cc(F)cc(F)c1)c1nc2cc(-c3ccccc3F)ccc2c(=O)n1-c1ccc(Cl)c2c(NS(=O)(=O)C3CC3)nn(CC(F)F)c12)n1ccc(C2CC2)n1 (single isomer, unassigned) [Example 138]	9 nM	> 500 nM	–	–
Cn1nc(NS(C)(=O)=O)c2c(Cl)ccc(-n3c([C@H](Cc4cc(F)cc(F)c4)NC(=O)Cn4nc(C(F)F)c5c4C(F)(F)[C@@H]4C[C@H]54)nc4cc(-c5ccc(F)cc5)ccc4c3=O)c21 [Example 193, N-((S)-1-(3-(4-chloro-1-methyl-3-(methylsulfonamido)-1H-indazol-7-yl)-7-(4-fluorophenyl)-4-oxo-3,4-dihydroquinazolin-2-yl)-2-(3,5-difluorophenyl)ethyl)-2-((3bS,4aR)-3-(difluoromethyl)-5,5-difluoro-3b,4,4a,5-tetrahydro-1H-cyclopropa[3,4]cyclopenta[1,2-c]pyrazol-1-yl)acetamide]	–	–	0.95 nM	> 1000 nM
Cn1nc(NS(C)(=O)=O)c2c(Cl)ccc(-n3c([C@H](Cc4cc(F)cc(F)c4)NC(=O)Cn4nc(C(F)F)c5c4C(F)(F)[C@@H]4C[C@H]54)nc4cc(-c5ccc(Cl)c(F)c5)ccc4c3=O)c21 [Example 194, N-((S)-1-(3-(4-chloro-1-methyl-3-(methylsulfonamido)-1H-indazol-7-yl)-7-(4-chloro-3-fluorophenyl)-4-oxo-3,4-dihydroquinazolin-2-yl)-2-(3,5-difluorophenyl)ethyl)-2-((3bS,4aR)-3-(difluoromethyl)-5,5-difluoro-3b,4,4a,5-tetrahydro-1H-cyclopropa[3,4]cyclopenta[1,2-c]pyrazol-1-yl)acetamide]	–	–	7.7 nM	> 1000 nM
Cn1nc(NS(C)(=O)=O)c2c(Cl)ccc(-n3c([C@H](Cc4cc(F)cc(F)c4)NC(=O)Cn4nc(C(F)F)c5c4C(F)(F)[C@@H]4C[C@H]54)nc4cc(-c5ccccc5)ccc4c3=O)c21 [Example 195, N-((S)-1-(3-(4-chloro-1-methyl-3-(methylsulfonamido)-1H-indazol-7-yl)-4-oxo-7-phenyl-3,4-dihydroquinazolin-2-yl)-2-(3,5-difluorophenyl)ethyl)-2-((3bS,4aR)-3-(difluoromethyl)-5,5-difluoro-3b,4,4a,5-tetrahydro-1H-cyclopropa[3,4]cyclopenta[1,2-c]pyrazol-1-yl)acetamide]	–	–	0.36 nM	> 1000 nM
